In BindingDB's records for doi:10.1021/jm970326r (University of Minnesota, 1998):

Legend:
[1] = target: Sigma non-opioid intracellular receptor 1 (Cavia porcellus) (UniProt Q60492); test: Sigma-1 binding assay was done in guinea pig membranes by labeling the binding site with [3H](+)-pentazocine
[2] = target: Vesicular acetylcholine transporter (Torpedo); test: Binding to vesicular acetylcholine transporter of torpedo synaptic vesicles
[3] = Sigma-1 binding assay was done in guinea pig membranes by labeling the binding site with [3H](+)-pentazocine.

Sequence of Sigma non-opioid intracellular receptor 1 (Cavia porcellus) (Q60492 whole entry, looked up): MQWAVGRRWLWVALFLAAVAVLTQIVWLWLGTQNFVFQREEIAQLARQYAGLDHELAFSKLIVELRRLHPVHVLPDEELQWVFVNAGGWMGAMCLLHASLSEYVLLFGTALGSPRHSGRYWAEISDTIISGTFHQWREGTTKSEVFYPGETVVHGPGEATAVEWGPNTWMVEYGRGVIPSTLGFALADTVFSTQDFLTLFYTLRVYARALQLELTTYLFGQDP

`O[C@@H]1CCN(Cc2cccc(I)c2)C[C@H]1N1CCC2(CCc3ccccc32)CC1` [1-(3-iodobenzyl)-3-spiro[2,3-dihydro-1H-indene-1,4'-(hexahydropyridine)]-1-yl-(3R,4R)-hexahydro-4-pyridinol] showed a Ki [1] of 283 nM.
Compound `CN1CC2(CCN([C@@H]3CN(Cc4cccc(I)c4)CC[C@H]3O)CC2)c2ccccc21` [1-(3-Iodobenzyl)-3-[1-methylspiro[2,3-dihydro-1H-indole-3,4'-(hexahydropyridine)]-1-yl]-(3R,4R)-hexahydro-4-pyridinol] has a Ki [2] of 17 nM and a Ki [1] of 122 nM.
`CN1CC2(CCN(C[C@H](O)c3cccc(Br)c3)CC2)c2ccccc21` [(1R)-1-(3-bromophenyl)-2-(1-methyl-1,2-dihydro-1'H-spiro[indole-3,4'-piperidin]-1'-yl)ethanol] gave a Ki [2] of 182 nM and a Ki [1] of 518 nM.
Work on `CN1CC2(CCN(C[C@H](O)Cc3ccc(Br)cc3)CC2)c2ccccc21` [(2R)-1-(4-bromophenyl)-3-{1-methyl-1,2-dihydrospiro[indole-3,4'-piperidine]-1'-yl}propan-2-ol] yielded a Ki [2] of 420 nM and a Ki [1] of 191 nM.
For `O[C@H]1CCN(Cc2cccc(I)c2)C[C@@H]1N1C2CCC1CC(c1ccccc1)C2` (stereo partly drawn) [(3S,4S)-1-(3-Iodo-benzyl)-3-(3-phenyl-8-aza-bicyclo[3.2.1]oct-8-yl)-piperidin-4-ol], the Ki [1] was 194 nM.
`O[C@@H]1Cc2ccccc2C[C@H]1N1CCC2(CCc3ccccc32)CC1` [3-spiro[2,3-dihydro-1H-indene-1,4'-(hexahydropyridine)]-1-yl-(2R,3R)-1,2,3,4-tetrahydro-2-naphthalenol] showed a Ki [2] of 0.36 nM.
`OC(CN1C2CCC1CC(c1ccccc1)C2)c1ccccc1Br` (stereo not given) [1-(2-Bromo-phenyl)-2-(3-phenyl-8-aza-bicyclo[3.2.1]oct-8-yl)-ethanol] showed a Ki [2] of 130 nM and a Ki [3] of 95.7 nM.
With `O[C@@H](CN1CCC2(CCc3ccccc32)CC1)c1cccc(Br)c1` [(1R)-1-(3-bromophenyl)-2-(2,3-dihydro-1'H-spiro[indene-1,4'-piperidin]-1'-yl)ethanol] the Ki [2] was 600 nM and the Ki [1] was 107 nM.
Work on `OC(CN1C2CCC1CC(c1ccccc1)C2)c1c(Cl)cccc1Cl` (stereo not given) [1-(2,6-Dichloro-phenyl)-2-(3-phenyl-8-aza-bicyclo[3.2.1]oct-8-yl)-ethanol] yielded a Ki [1] of 302 nM.
Compound `O=C(CN1C2CCC1CC(c1ccccc1)C2)c1ccc(F)cc1` (stereo not given) [1-(4-Fluoro-phenyl)-2-(3-phenyl-8-aza-bicyclo[3.2.1]oct-8-yl)-ethanone] has a Ki [2] of 3400 nM and a Ki [1] of 281 nM.
`OC(CN1C2CCC1CC(c1ccccc1)C2)c1cccc(Br)c1` (stereo not given) [1-(3-Bromo-phenyl)-2-(3-phenyl-8-aza-bicyclo[3.2.1]oct-8-yl)-ethanol] gave a Ki [1] of 117 nM.
In the case of `CN1CC2(CCN(CCCC(=O)c3ccc(F)cc3)CC2)c2ccccc21` [1-(4-fluorophenyl)-4-[1-methylspiro[2,3-dihydro-1H-indole-3,4'-(hexahydropyridine)]-1-yl]-1-butanone], the Ki [1] is reported as 110 nM.
With `O[C@@H]1CCCC[C@H]1N1CCC2(CCc3ccccc32)CC1` [(1R,2R)-2-(2,3-dihydro-1'H-spiro[indene-1,4'-piperidin]-1'-yl)cyclohexanol] the Ki [2] was 7.6 nM and the Ki [1] was 21 nM.
Compound `O=C(CCCN1CCC2(CCc3ccccc32)CC1)c1ccc(F)cc1` [1-(4-fluorophenyl)-4-spiro[2,3-dihydro-1H-indene-1,4'-(hexahydropyridine)]-1-yl-1-butanone] has a Ki [1] of 1.8 nM.
For `O[C@H]1CCCC[C@@H]1N1C2CCC1CC(c1ccccc1)C2` (stereo partly drawn) [(1S,2S)-2-(3-Phenyl-8-aza-bicyclo[3.2.1]oct-8-yl)-cyclohexanol], the Ki [1] was 380 nM.
`O[C@H]1CCN(Cc2ccc(F)cc2)C[C@@H]1N1C2CCC1CC(c1ccccc1)C2` (stereo partly drawn) [(3S,4S)-1-(4-Fluoro-benzyl)-3-(3-phenyl-8-aza-bicyclo[3.2.1]oct-8-yl)-piperidin-4-ol] showed a Ki [2] of 325 nM and a Ki [1] of 240 nM.
For `O[C@H]1Cc2ccccc2C[C@@H]1N1C2CCC1CC(c1ccccc1)C2` (stereo partly drawn) [(2S,3S)-3-(3-Phenyl-8-aza-bicyclo[3.2.1]oct-8-yl)-1,2,3,4-tetrahydro-naphthalen-2-ol], the Ki [2] was 8.5 nM and the Ki [1] was 175 nM.
Compound `CN1CC2(CCN([C@@H]3CCCC[C@H]3O)CC2)c2ccccc21` [(1R,2R)-2-(1-methyl-1,2-dihydro-1'H-spiro[indole-3,4'-piperidin]-1'-yl)cyclohexanol] has a Ki [2] of 74 nM and a Ki [1] of 286 nM.
In the case of `OC(CN1C2CCC1CC(c1ccccc1)C2)c1ccccc1` (stereo not given) [1-Phenyl-2-(3-phenyl-8-aza-bicyclo[3.2.1]oct-8-yl)-ethanol], the Ki [2] is reported as 474 nM.
Work on `O=C(CCCN1C2CCC1CC(c1ccccc1)C2)c1ccc(F)cc1` (stereo not given) yielded a Ki [1] of 34.1 nM.
For `OC(CN1CCC(c2ccccc2)CC1)c1ccc(Br)cc1` (stereo not given) [1-(4-Bromo-phenyl)-2-(4-phenyl-piperidin-1-yl)-ethanol], the Ki [2] was 30 nM.
`OC(CN1C2CCC1CC(c1ccccc1)C2)c1ccc(Br)cc1` (stereo not given) [1-(4-Bromo-phenyl)-2-(3-phenyl-8-aza-bicyclo[3.2.1]oct-8-yl)-ethanol] showed a Ki [2] of 144 nM and a Ki [1] of 17.5 nM.
With `OC(CCCN1C2CCC1CC(c1ccccc1)C2)c1ccc(F)cc1` (stereo not given) [1-(4-Fluoro-phenyl)-4-(3-phenyl-8-aza-bicyclo[3.2.1]oct-8-yl)-butan-1-ol] the Ki [2] was 380 nM.
Work on `OC(Cc1ccc(Br)cc1)CN1C2CCC1CC(c1ccccc1)C2` (stereo not given) [1-(4-Bromo-phenyl)-3-(3-phenyl-8-aza-bicyclo[3.2.1]oct-8-yl)-propan-2-ol] yielded a Ki [1] of 30.9 nM.
`O[C@H](Cc1ccc(Br)cc1)CN1CCC2(CCc3ccccc32)CC1` [(2R)-1-(4-bromophenyl)-3-{2,3-dihydrospiro[indene-1,4'-piperidine]-1'-yl}propan-2-ol] gave a Ki [2] of 86 nM.
`OC(CN1C2CCC1CC(c1ccccc1)C2)c1ccc(Cl)c(Cl)c1` (stereo not given) [1-(3,4-Dichloro-phenyl)-2-(3-phenyl-8-aza-bicyclo[3.2.1]oct-8-yl)-ethanol] gave a Ki [2] of 60 nM and a Ki [1] of 249 nM.
`O[C@@H]1CCN(Cc2ccc(F)cc2)C[C@H]1N1CCC2(CCc3ccccc32)CC1` [1-(4-fluorobenzyl)-3-spiro[2,3-dihydro-1H-indene-1,4'-(hexahydropyridine)]-1-yl-(3R,4R)-hexahydro-4-pyridinol] gave a Ki [2] of 0.36 nM and a Ki [1] of 25 nM.
